Tested on: S. hygroscopicus jingganensis L-DOPA 2,3-dioxygenase (ShjDDO)
Experiment: Presteady state stopped-flow kinetic assay, modeled with KinTek Explorer
Assay type: biochemical, Streptomyces hygroscopicus jingganensis
Description: Reaction temperature was controlled at 14 ± 0.5 °C by a circulating water bath. […] Stock solutions of 6-[…] prepared in DMSO. […] ShjDDO was reconstituted with iron(II) sulfate heptahydrate, gel filtered into the reaction buffer, and loaded into the drive syringe. […] Fifteen to twenty progress curves from the same experimental conditions were averaged in the KinTek Stopped Flow software and exported to KinTek Explorer for modeling. Between experiments, the instrument drive syringes were cleaned with acid, base, and water; soaked in 1% Hellmanex detergent for 30 min at ∼30-35 °C; thoroughly rinsed with water; and stored in 10% ethanol. […] state kinetic data were analyzed by fitting to simulated mechanisms using the KinTek Explorer software (KinTek Corp, Austin, TX). KinTek Explorer simulates experimental results by using direct numerical integration of rate equations for the kinetic model and yields estimates for the rate constants of microscopic steps. […] state experiments were modeled using KinTek Explorer according to a defined reaction pathway, as described in the Results and Discussion and shown in Scheme . The extinction coefficients of the DHHCA and 6-[…] semialdehyde products were independently determined as described above and fixed during fitting. Some rates were fixed as either “fast” (i.e., 1 × 10^9) or very slow (1 × 10^-12, i.e., ∼0) as described in the text. The equilibrium represented by k 1 and k -1 was fixed at the ratio of substrate charge states as predicted by the experimentally determined pK a values (Table ) and the Henderson-Hasselbach equation. Extinction coefficients were fitted and/or fixed during fitting as described in the text and interpreted using the observable expression: […], where a is the extinction coefficient applied to ESQ, b is the independently experimentally determined extinction coefficient on P, and c is a y-axis offset. […] ESO2 is the ternary complex of enzyme, substrate, and oxygen. ESQ represents the putative semiquinone intermediate, a UV-absorbing species, and ESQ_X is the species formed from the nonproductive quenching of the semiquinone. […] EP is the enzyme-product complex, and P is the free semialdehyde product. P can then degrade nonenzymatically to the spectroscopically silent P_X. Errors on each fit were calculated from 2[…] at 0.83 Chi^2. The KinTek Explorer program FitSpace explores the uniqueness of a particular fit to the data by measuring the dependence of the sum square error (SSE) on each pair of parameters, while allowing all other parameters to vary in seeking the best fit. […]

[1] = pH 7.35, 14 °C, ∼1000 μM O2, 380 nm, fitted, ± is FitSpace range

k6 (productive formation of EI) [1]: ~0.55 s⁻¹ | k7 (rate of inactivation, ESQ to ESQ_X) [1]: ~0.3 s⁻¹ | productive formation of EI (k 6) faster than the rate of inactivation (k 7) (ratio k6/k7, presteady state with ShjDDO): 1.85 times
Compound: N#Cc1cc(O)c(O)cc1CCC(=O)O [6-CyanoDHHCA (5), 3-(2-cyano-4,5-dihydroxyphenyl) propanoic acid]

Reference: paper PMC12311729, “Probing the Mechanism of L‑DOPA 2,3-Dioxygenase Using Synthetic Derivatives of 3,4-Dihydroxyhydrocinnamic Acid” (ACS Omega, 2025)
